In patent US20240217957A1, “HETEROCYCLIC COMPOUND AND USE THEREOF” (TAKEDA PHARMACEUTICAL COMPANY LIMITED, priority 2022, published 2024):

Biological target: T1, human OX2 receptor (Homo sapiens, UniProt O43614)
T1 construct: expressed in transfected cells
T1 sequence (O43614 1-444): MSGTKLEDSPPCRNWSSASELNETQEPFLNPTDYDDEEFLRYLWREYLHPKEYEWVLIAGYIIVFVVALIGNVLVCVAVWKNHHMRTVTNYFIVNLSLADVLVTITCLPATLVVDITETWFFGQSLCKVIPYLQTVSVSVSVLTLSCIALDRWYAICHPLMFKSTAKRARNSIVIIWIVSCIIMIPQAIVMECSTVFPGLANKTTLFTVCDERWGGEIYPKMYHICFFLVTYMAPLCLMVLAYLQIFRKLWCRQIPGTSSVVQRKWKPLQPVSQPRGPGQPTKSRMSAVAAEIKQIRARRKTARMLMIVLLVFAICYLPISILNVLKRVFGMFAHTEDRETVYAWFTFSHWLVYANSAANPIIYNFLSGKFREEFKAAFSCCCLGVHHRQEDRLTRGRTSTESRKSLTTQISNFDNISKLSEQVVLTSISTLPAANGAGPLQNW
Experiment: Measurement of orexin type 2 receptor agonist activity (calcium fluorescence, Fluo-4 AM, FDSS)
Type: cell-based
Settings: compound at 3 μM; CHO cells forcibly expressing human OX2 receptor; DMSO = 0%, 10 nM orexin A (human) = 100%
Procedure, shortened: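 Agonist response is expressed as % of the fluorescence change given by 10 nM human orexin A, with DMSO as 0%, read over 1 min 40 s on FDSS after compound addition. Cells: stable human OX2 (1-444) CHO-K1 clones, dye-loaded with Fluo-4 AM plus probenecid in HEPES-buffered HBSS with 0.1% BSA.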

SMILES | OX2R agonist activity (3 μM, %) [%]
Cc1cnc([C@@H]2CC(N3CC[C@H](NS(=O)(=O)CF)C3)=NO2)c(-c2c(F)cc(F)cc2F)c1 [Example 56, 1-fluoro-N-[(3S)-1-{(5S)-5-[5-methyl-3-(2,4,6-trifluorophenyl)pyridin-2-yl]-4,5-dihydro-1,2-oxazol-3-yl}pyrrolidin-3-yl]methanesulfonamide] | 92
Cc1cnc([C@@H]2CC(N3C[C@H](F)[C@H](NS(C)(=O)=O)C3)=NO2)c(-c2c(F)cc(F)cc2F)c1 [Example 57, N-[(3R,4S)-4-fluoro-1-{(5S)-5-[5-methyl-3-(2,4,6-trifluorophenyl)pyridin-2-yl]-4,5-dihydro-1,2-oxazol-3-yl}pyrrolidin-3-yl]methanesulfonamide] | 105
Cc1cnc([C@@H]2CC(N3C[C@@H](NS(=O)(=O)CF)C(F)(F)C3)=NO2)c(-c2c(F)cc(F)cc2F)c1 [Example 58, N-[(3R)-4,4-difluoro-1-{(5S)-5-[5-methyl-3-(2,4,6-trifluorophenyl)pyridin-2-yl]-4,5-dihydro-1,2-oxazol-3-yl}pyrrolidin-3-yl]-1-fluoromethanesulfonamide] | 103
Cc1cnc(C2(C(F)F)CC(N3C[C@@H](NS(C)(=O)=O)C(F)(F)C3)=NO2)c(-c2c(F)cccc2F)c1 (stereo partly drawn) [Example 59, N-[(3R)-1-{5-(difluoromethyl)-5-[3-(2,6-difluorophenyl)-5-methylpyridin-2-yl]-4,5-dihydro-1,2-oxazol-3-yl}-4,4-difluoropyrrolidin-3-yl]methanesulfonamide] | 101
Cc1cnc([C@@H]2CC(N3C[C@@H](NS(=O)(=O)C(F)F)C(F)(F)C3)=NO2)c(-c2c(F)cc(F)cc2F)c1 [Example 60, N-[(3R)-4,4-difluoro-1-{(5S)-5-[5-methyl-3-(2,4,6-trifluorophenyl)pyridin-2-yl]-4,5-dihydro-1,2-oxazol-3-yl}pyrrolidin-3-yl]-1,1-difluoromethanesulfonamide] | 105
Cc1cnc(C2CC(N3C[C@@H](NS(C)(=O)=O)C(F)(F)C3)=NO2)c(-c2c(F)cccc2Cl)c1 (stereo partly drawn) [Example 61, N-[(3R)-1-{5-[3-(2-chloro-6-fluorophenyl)-5-methylpyridin-2-yl]-4,5-dihydro-1,2-oxazol-3-yl}-4,4-difluoropyrrolidin-3-yl]methanesulfonamide] | 98
Cc1cnc([C@@H]2CC(N3C[C@@H](C)[C@H](NS(C)(=O)=O)C3)=NO2)c(-c2c(F)cc(F)cc2F)c1 [Example 63, N-[(3S,4R)-4-methyl-1-{(5S)-5-[5-methyl-3-(2,4,6-trifluorophenyl)pyridin-2-yl]-4,5-dihydro-1,2-oxazol-3-yl}pyrrolidin-3-yl]methanesulfonamide] | 101
Cc1cnc([C@@H]2CC(N3CC(F)(F)C(C)(NS(C)(=O)=O)C3)=NO2)c(-c2c(F)cc(F)cc2F)c1 (stereo partly drawn) [Example 64, N-(4,4-difluoro-3-methyl-1-{(5S)-5-[5-methyl-3-(2,4,6-trifluorophenyl)pyridin-2-yl]-4,5-dihydro-1,2-oxazol-3-yl}pyrrolidin-3-yl)methanesulfonamide] | 100
Cc1cnc([C@@H]2CC(N3C[C@@H](F)[C@H](NS(=O)(=O)CF)C3)=NO2)c(-c2c(F)cccc2F)c1 [Example 65, N-[(3R,4R)-1-{(5S)-5-[3-(2,6-difluorophenyl)-5-methylpyridin-2-yl]-4,5-dihydro-1,2-oxazol-3-yl}-4-fluoropyrrolidin-3-yl]-1-fluoromethanesulfonamide] | 97
Cc1cnc([C@@H]2CC(N3CC[C@H](NS(=O)(=O)C(F)F)C3)=NO2)c(-c2c(F)cc(F)cc2F)c1 [Example 66, 1,1-difluoro-N-[(3S)-1-{(5S)-5-[5-methyl-3-(2,4,6-trifluorophenyl)pyridin-2-yl]-4,5-dihydro-1,2-oxazol-3-yl}pyrrolidin-3-yl]methanesulfonamide] | 99
O=S(=O)(N[C@@H]1CN(C2=NOC(c3ncc(F)cc3-c3c(F)cccc3F)C2)CC1(F)F)C1CC1 (stereo partly drawn) [Example 67, N-[(3R)-1-{5-[3-(2,6-difluorophenyl)-5-fluoropyridin-2-yl]-4,5-dihydro-1,2-oxazol-3-yl}-4,4-difluoropyrrolidin-3-yl]cyclopropanesulfonamide] | 98
Cc1cnc([C@@H]2CC(N3C[C@H](F)[C@H](NS(=O)(=O)CF)C3)=NO2)c(-c2c(F)cccc2F)c1 [Example 68, N-[(3R,4S)-1-{(5S)-5-[3-(2,6-difluorophenyl)-5-methylpyridin-2-yl]-4,5-dihydro-1,2-oxazol-3-yl}-4-fluoropyrrolidin-3-yl]-1-fluoromethanesulfonamide] | 104
CS(=O)(=O)N[C@@H]1CN(C2=NOC(c3ncc(F)cc3-c3c(F)cccc3F)C2)CC1(F)F (stereo partly drawn) [Example 69, N-[(3R)-1-{5-[3-(2,6-difluorophenyl)-5-fluoropyridin-2-yl]-4,5-dihydro-1,2-oxazol-3-yl}-4,4-difluoropyrrolidin-3-yl]methanesulfonamide] | 95
CS(=O)(=O)N[C@@H]1CN(C2=NOC(c3ncc(F)cc3-c3c(F)cc(F)cc3F)C2)CC1(F)F (stereo partly drawn) [Example 70, N-[(3R)-4,4-difluoro-1-{5-[5-fluoro-3-(2,4,6-trifluorophenyl)pyridin-2-yl]-4,5-dihydro-1,2-oxazol-3-yl}pyrrolidin-3-yl]methanesulfonamide] | 94
COCC1(NS(C)(=O)=O)CCN(C2=NO[C@H](c3ncc(C)cc3-c3c(F)cccc3F)C2)C1 (stereo partly drawn) [Example 73, N-[1-{(5S)-5-[3-(2,6-difluorophenyl)-5-methylpyridin-2-yl]-4,5-dihydro-1,2-oxazol-3-yl}-3-(methoxymethyl)pyrrolidin-3-yl]methanesulfonamide] | 102
Cc1cnc([C@@H]2CC(O[C@H]3C[C@H](NS(C)(=O)=O)C3)=NO2)c(-c2c(F)cc(F)cc2F)c1 [Example 74, N-[(1s,3r)-3-({(5S)-5-[5-methyl-3-(2,4,6-trifluorophenyl)pyridin-2-yl]-4,5-dihydro-1,2-oxazol-3-yl}oxy)cyclobutyl]methanesulfonamide] | 58
Cc1cnc(C2(C)CC(N3C[C@@H](NS(C)(=O)=O)C(F)(F)C3)=NO2)c(-c2c(F)cccc2F)c1 (stereo partly drawn) [Example 76, N-[(3R)-1-{5-[3-(2,6-difluorophenyl)-5-methylpyridin-2-yl]-5-methyl-4,5-dihydro-1,2-oxazol-3-yl}-4,4-difluoropyrrolidin-3-yl]methanesulfonamide] | 108
Cc1cnc([C@@H]2CC(N3C[C@@H](F)[C@H](NS(=O)(=O)N(C)C)C3)=NO2)c(-c2c(F)cc(F)cc2F)c1 [Example 77, N′-[(3R,4R)-4-fluoro-1-{(5S)-5-[5-methyl-3-(2,4,6-trifluorophenyl)pyridin-2-yl]-4,5-dihydro-1,2-oxazol-3-yl}pyrrolidin-3-yl]-N,N-dimethylsulfuric diamide] | 102
Cc1cnc([C@@H]2CC(N3C[C@@H](F)[C@H](NS(=O)(=O)N(C)C)C3)=NO2)c(-c2c(F)cccc2F)c1 [Example 78, N′-[(3R,4R)-1-{(5S)-5-[3-(2,6-difluorophenyl)-5-methylpyridin-2-yl]-4,5-dihydro-1,2-oxazol-3-yl}-4-fluoropyrrolidin-3-yl]-N,N-dimethylsulfuric diamide] | 102
Cc1cnc([C@@H]2CC(N3C[C@H](F)[C@H](NS(=O)(=O)N(C)C)C3)=NO2)c(-c2c(F)cccc2F)c1 [Example 79, N′-[(3R,4S)-1-{(5S)-5-[3-(2,6-difluorophenyl)-5-methylpyridin-2-yl]-4,5-dihydro-1,2-oxazol-3-yl}-4-fluoropyrrolidin-3-yl]-N,N-dimethylsulfuric diamide] | 100
CS(=O)(=O)N[C@@H]1CN(C2=NOC(c3ncc(Cl)cc3-c3c(F)cccc3F)C2)C[C@@H]1F (stereo partly drawn) [Example 80, N-[(3R,4S)-1-{5-[5-chloro-3-(2,6-difluorophenyl)pyridin-2-yl]-4,5-dihydro-1,2-oxazol-3-yl}-4-fluoropyrrolidin-3-yl]methanesulfonamide] | 97
Cc1cnc([C@@H]2CC(N3C[C@H](F)[C@H](NS(=O)(=O)C(F)F)C3)=NO2)c(-c2c(F)cccc2F)c1 [Example 81, N-[(3R,4S)-1-{(5S)-5-[3-(2,6-difluorophenyl)-5-methylpyridin-2-yl]-4,5-dihydro-1,2-oxazol-3-yl}-4-fluoropyrrolidin-3-yl]-1,1-difluoromethanesulfonamide] | 100
Cc1cnc([C@@H]2CC(N3C[C@H](F)[C@H](NS(=O)(=O)CF)C3)=NO2)c(-c2c(F)cc(F)cc2F)c1 [Example 82, 1-fluoro-N-[(3R,4S)-4-fluoro-1-{(5S)-5-[5-methyl-3-(2,4,6-trifluorophenyl)pyridin-2-yl]-4,5-dihydro-1,2-oxazol-3-yl}pyrrolidin-3-yl]methanesulfonamide] | 98
